Assay results reported in patent publication US9079907B2, “Fused heterocyclic compound and use thereof” (TAKEDA PHARMACEUTICAL COMPANY LIMITED, priority 2006, dated 2015).
Structures can show the parent of a compound that is named as a salt.

Target: serotonin 5-HT2C receptor (isoform type VSV, stably expressing CHO cell) (Homo sapiens, UniProt P28335, I156V/I160V/N158S)
Test: cell-based
Conditions: 1 μM

Chain of serotonin 5-HT2C receptor (isoform type VSV, stably expressing CHO cell) (P28335 33-458 I156V/N158S/I160V limits assumed): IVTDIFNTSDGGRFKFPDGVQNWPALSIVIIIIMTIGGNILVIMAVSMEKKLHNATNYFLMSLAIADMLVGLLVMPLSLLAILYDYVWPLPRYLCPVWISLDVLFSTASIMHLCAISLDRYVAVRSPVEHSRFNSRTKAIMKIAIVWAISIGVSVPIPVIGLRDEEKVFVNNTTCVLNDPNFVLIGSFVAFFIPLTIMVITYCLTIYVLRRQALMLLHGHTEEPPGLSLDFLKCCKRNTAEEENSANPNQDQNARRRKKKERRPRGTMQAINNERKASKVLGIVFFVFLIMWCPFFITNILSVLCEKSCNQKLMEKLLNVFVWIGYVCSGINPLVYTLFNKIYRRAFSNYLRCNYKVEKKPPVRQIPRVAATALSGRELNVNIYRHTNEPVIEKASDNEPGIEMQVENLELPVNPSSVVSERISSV

Row | Structure (SMILES) | ratio to maximum response by 5-HT (1 μM) [%]
1 | Br.CC1CCC(C)N1c1ccc2c(n1)OCCNC2 (centres unmarked) [Example 156, 8-(2,5-dimethylpyrrolidin-1-yl)-2,3,4,5-tetrahydropyrido[3,2-f][1,4]oxazepine monohydrobromide] | 93.4
2 | c1cc2c(nc1N1CCOCC1)OCCNC2 [Example 41, 8-morpholin-4-yl-2,3,4,5-tetrahydropyrido[3,2-f][1,4]oxazepine] | 83.0
3 | c1cc2c(nc1C1CCCC1)OCCNC2 [Example 213, 8-cyclopentyl-2,3,4,5-tetrahydropyrido[3,2-f][1,4]oxazepine] | 96.6

Same assay, conditions: 1 μM; dihydrochloride

Row | Structure (SMILES) | ratio to maximum response by 5-HT (1 μM) [%]
4 | CCC(C)N(C)c1ccc2c(n1)OCCNC2 (centres unmarked) [Example 173, N-(sec-butyl)-N-methyl-2,3,4,5-tetrahydropyrido[3,2-f][1,4]oxazepin-8-amine dihydrochloride] | 95.1

Same assay, conditions: 1 μM; monohydrobromide

Row | Structure (SMILES) | ratio to maximum response by 5-HT (1 μM) [%]
5 | CC(C)N(C)c1ccc2c(n1)OCCNC2 [Example 178, N-isopropyl-N-methyl-2,3,4,5-tetrahydropyrido[3,2-f][1,4]oxazepin-8-amine monohydrobromide] | 94.6
6 | c1cc2c(nc1N1CCOCC1)OCCNC2 [Example 148, 8-morpholin-4-yl-2,3,4,5-tetrahydropyrido[3,2-f][1,4]oxazepine monohydrobromide] | 93.5

Same assay, conditions: 1 μM; monohydrochloride

Row | Structure (SMILES) | ratio to maximum response by 5-HT (1 μM) [%]
7 | CCC(C)N(C)c1ccc2c(n1)OCCNC2 (centres unmarked) [Example 172, N-(sec-butyl)-N-methyl-2,3,4,5-tetrahydropyrido[3,2-f][1,4]oxazepin-8-amine monohydrochloride] | 95.3

Same assay, conditions: CHO, read-out: ratio to maximum response by 5-HT; read-out: ratio to maximum response by 5-HT (1 μM)

Row | Structure (SMILES) | Emax [%]
8 | CC1CNCc2ccc(N3CCN(C(=O)OC(C)(C)C)CC3)nc2O1 (centres unmarked) [Example 126, tert-butyl 4-(2-methyl-2,3,4,5-tetrahydropyrido[3,2-f][1,4]oxazepin-8-yl)piperazine-1-carboxylate] | 109
9 | COC(=O)c1ccc(-c2ccc3c(n2)OCCNC3)cc1 [Example 102, methyl 4-(2,3,4,5-tetrahydropyrido[3,2-f][1,4]oxazepin-8-yl)benzoate bis(trifluoroacetate)] | 91.3
10 | c1ccc(CCCCN2CCN(c3ccc4c(n3)OCCNC4)CC2)cc1 [Example 67, 8-[4-(4-phenylbutyl)piperazin-1-yl]-2,3,4,5-tetrahydropyrido[3,2-f][1,4]oxazepine tris(trifluoroacetate)] | 124
11 | c1cc2c(nc1N1CCCC1)OCCNC2 [Example 43, 8-pyrrolidin-1-yl-2,3,4,5-tetrahydropyrido[3,2-f][1,4]oxazepine bis(trifluoroacetate)] | 97
12 | c1cc2c(nc1C1CCC1)OCCNC2 [Example 211, 8-cyclobutyl-2,3,4,5-tetrahydropyrido[3,2-f][1,4]oxazepine dihydrochloride] | 98
13 | CC(C)(C)OC(=O)N1CCN(c2nc3c(cc2F)CNCCO3)CC1 [Example 122, tert-butyl 4-(7-fluoro-2,3,4,5-tetrahydropyrido[3,2-f][1,4]oxazepin-8-yl)piperazine-1-carboxylate] | 110
14 | Fc1ccc(-c2ccc3c(n2)OCCNC3)cc1 [Example 81, 8-(4-fluorophenyl)-2,3,4,5-tetrahydropyrido[3,2-f][1,4]oxazepine bis(trifluoroacetate)] | 92.1
15 | CC1CNCc2ccc(N3CCOCC3)nc2O1 (centres unmarked) [Example 128, 2-methyl-8-morpholin-4-yl-2,3,4,5-tetrahydropyrido[3,2-f][1,4]oxazepine] | 107
16 | CC(C)(C)OC(=O)N1CCN(c2ccc3c(n2)OCCNC3)CC1 [Example 30, tert-butyl 4-(2,3,4,5-tetrahydropyrido[3,2-f][1,4]oxazepin-8-yl)piperazine-1-carboxylate] | 99.4
17 | c1cc2c(nc1C1CC1)OCCNC2 [Example 210, 8-cyclopropyl-2,3,4,5-tetrahydropyrido[3,2-f][1,4]oxazepine dihydrochloride] | 108
18 | CC1CNCc2ccc(N3CCCCC3)nc2O1 (centres unmarked) [Example 129, 2-methyl-8-piperidin-1-yl-2,3,4,5-tetrahydropyrido[3,2-f][1,4]oxazepine] | 111
19 | Clc1ccc(-c2ccc3c(n2)OCCNC3)cc1 [Example 79, 8-(4-chlorophenyl)-2,3,4,5-tetrahydropyrido[3,2-f][1,4]oxazepine] | 91.1
20 | CC1CCC(C)N1c1ccc2c(n1)OCCNC2 (centres unmarked) [Example 155, 8-(2,5-dimethylpyrrolidin-1-yl)-2,3,4,5-tetrahydropyrido[3,2-f][1,4]oxazepine] | 85.4
21 | c1cc(-c2ccc3c(n2)OCCNC3)co1 [Example 112, 8-(3-furyl)-2,3,4,5-tetrahydropyrido[3,2-f][1,4]oxazepine bis(trifluoroacetate)] | 93
22 | FC(F)(F)Oc1ccc(-c2ccc3c(n2)OCCNC3)cc1 [Example 104, 8-[4-(trifluoromethoxy)phenyl]-2,3,4,5-tetrahydropyrido[3,2-f][1,4]oxazepine bis(trifluoroacetate)] | 94.6
23 | c1cc2c(nc1N1CCOCC1)OCCNC2 [Example 147, 8-morpholin-4-yl-2,3,4,5-tetrahydropyrido[3,2-f][1,4]oxazepine monohydrochloride] | 93.9
24 | CSc1ccc(-c2ccc3c(n2)OCCNC3)cc1 [Example 96, 8-[4-(methylthio)phenyl]-2,3,4,5-tetrahydropyrido[3,2-f][1,4]oxazepine bis(trifluoroacetate)] | 90.3
25 | c1ccc(CCN2CCN(c3ccc4c(n3)OCCNC4)CC2)cc1 [Example 58, 8-[4-(2-phenylethyl)piperazin-1-yl]-2,3,4,5-tetrahydropyrido[3,2-f][1,4]oxazepine tris(trifluoroacetate)] | 87.1
26 | C[C@H]1CNCc2ccc(N3CCOCC3)nc2O1 [Example 131, (−)-2-methyl-8-morpholin-4-yl-2,3,4,5-tetrahydropyrido[3,2-f][1,4]oxazepine] | 94.2
27 | c1cc2c(nc1N1CCCCCC1)OCCNC2 [Example 46, 8-azepan-1-yl-2,3,4,5-tetrahydropyrido[3,2-f][1,4]oxazepine bis(trifluoroacetate)] | 100
28 | C[C@@H]1CNCc2ccc(N3CCOCC3)nc2O1 [Example 130, (+)-2-methyl-8-morpholin-4-yl-2,3,4,5-tetrahydropyrido[3,2-f][1,4]oxazepine] | 105
29 | CC(C)c1ccc2c(n1)OCCNC2 [Example 205, 8-isopropyl-2,3,4,5-tetrahydropyrido[3,2-f][1,4]oxazepine dihydrochloride] | 93.5
30 | CC(C)N(C)c1ccc2c(n1)OCCNC2 [Example 177, N-isopropyl-N-methyl-2,3,4,5-tetrahydropyrido[3,2-f][1,4]oxazepin-8-amine] | 91.5
31 | CCN(CC)c1ccc2c(n1)OCCNC2 [Example 44, N,N-diethyl-2,3,4,5-tetrahydropyrido[3,2-f][1,4]oxazepin-8-amine bis(trifluoroacetate)] | 95.1
32 | c1cc2c(nc1N1CCCCC1)OCCNC2 [Example 40, 8-piperidin-1-yl-2,3,4,5-tetrahydropyrido[3,2-f][1,4]oxazepine] | 80.8
33 | CCC(C)N(C)c1ccc2c(n1)OCCNC2 (centres unmarked) [Example 171, N-(sec-butyl)-N-methyl-2,3,4,5-tetrahydropyrido[3,2-f][1,4]oxazepin-8-amine monohydrobromide] | 99.6
34 | CC1CCCCN1c1ccc2c(n1)OCCNC2 (centres unmarked) [Example 49, 8-(2-methylpiperidin-1-yl)-2,3,4,5-tetrahydropyrido[3,2-f][1,4]oxazepine bis(trifluoroacetate)] | 89.5
35 | c1cc2c(nc1C1CCCC1)OCCNC2 [Example 212, 8-cyclopentyl-2,3,4,5-tetrahydropyrido[3,2-f][1,4]oxazepine dihydrochloride] | 91.9

Tested on: female spinal cord-transected rats with bilaterally transected hypogastric nerve and pudendal nerve
Test: Reflex urethral closure response induced by increased intravesical pressure, with hypogastric and pudendal nerves bilaterally transected
Conditions: 1 mg/kg i.v.; 10 min after administration; intravesical pressure raised to 50 cmH2O; mean ± SEM, n = 5
Protocol: Female SD rats (body weight 200-310 g) were anesthetized with urethane (Wako Pure Chemical Industries, Ltd.), and the spinal cord was transected at T8-9 level to eliminate the micturition reflex. During the operation, halothane (Takeda Pharmaceutical Company Limited) anesthesia was added when necessary. After abdominal section, bladder neck was ligated with a suture thread, and then the hypogastric nerve and pudendal nerve were bilaterally transected. A catheter (PE-90, Clay Adams) was placed in the bladder, and the other end of the bladder catheter was connected to a pressure transducer and a water reservoir (60 ml syringe) of saline via a three-way cock. A microchip transducer catheter (SPR-524, Millar Instruments Inc.) was inserted toward the bladder from the urethral opening, and adjusted using a scale on the catheter surface so that the transducer part is positioned in the urinary tract at 10.0-15.0 mm from the urethral opening.
The changes in the topical pressure within the urinary tract (hereinafter conveniently indicated as urethral internal pressure) as measured by the microchip transducer was transmitted to a computer via an amplifier (blood pressure amplification unit AP-641G; NIHON KOHDEN) and an analog-to-digital converter (MP-100; biopack; sampled at 500 Hz), and recorded on a hard disc. […] The reaction of the urinary tract induced by an increased intravesical pressure was measured 3 times, and the average of the last 2 measures was taken as the value before drug administration. The evaluation item was reflex urethral closure response, and the recorded values were subjected to smoothing process at 500 points to calculate an average urethral internal pressure per 1 sec, after which the value immediately before increase of the intravesical pressure was subtracted from the maximum value on increase of the intravesical pressure and taken as the urethral closure response. […] The drugs were all dissolved in N,N-dimethylformamide/polyethylene glycol 400 (1:1) and administered intravenously at a dose of 0.5 ml/kg.

Row | Structure (SMILES) | urethral closure response (cmH2O) after drug administration [cmH2O]
36 | C[C@H]1CNCCc2ccc(Cl)cc21.Cl [APD-356] | 8.6 ± 2.7
37 | c1cc2c(nc1N1CCOCC1)OCCNC2 [Example 41, 8-morpholin-4-yl-2,3,4,5-tetrahydropyrido[3,2-f][1,4]oxazepine] | 7.5 ± 1.6

Same assay, conditions: 3 mg/kg i.v.; 10 min after administration; intravesical pressure raised to 50 cmH2O; mean ± SEM, n = 5

Row | Structure (SMILES) | urethral closure response (cmH2O) after drug administration [cmH2O]
38 | c1cc2c3c(c1)[C@H]1CCC[C@H]1N3CCNC2 [WAY-163909] | 10.2 ± 1.6

Same assay, conditions: baseline of the 1 mg/kg i.v. group; intravesical pressure raised to 50 cmH2O; mean ± SEM, n = 5

Row | Structure (SMILES) | urethral closure response (cmH2O) before drug administration [cmH2O]
39 | C[C@H]1CNCCc2ccc(Cl)cc21.Cl [APD-356] | 5.3 ± 1.7
40 | c1cc2c(nc1N1CCOCC1)OCCNC2 [Example 41, 8-morpholin-4-yl-2,3,4,5-tetrahydropyrido[3,2-f][1,4]oxazepine] | 4.6 ± 0.8

Same assay, conditions: baseline of the 3 mg/kg i.v. group; intravesical pressure raised to 50 cmH2O; mean ± SEM, n = 5

Row | Structure (SMILES) | urethral closure response (cmH2O) before drug administration [cmH2O]
41 | c1cc2c3c(c1)[C@H]1CCC[C@H]1N3CCNC2 [WAY-163909] | 4.4 ± 0.8

Same assay, conditions: i.v.; female spinal cord-transected rats with hypogastric and pudendal nerves bilaterally transected

Row | Structure (SMILES) | action on the urethral closure response induced by the increased intravesical pressure (in words)
42 | C[C@H]1CNCCc2ccc(Cl)cc21.Cl [APD-356] | enhanced the urethral closure response
43 | c1cc2c3c(c1)[C@H]1CCC[C@H]1N3CCNC2 [WAY-163909] | enhanced the urethral closure response
44 | c1cc2c(nc1N1CCOCC1)OCCNC2 [Example 41, 8-morpholin-4-yl-2,3,4,5-tetrahydropyrido[3,2-f][1,4]oxazepine] | enhanced the urethral closure response
